Measurements taken from patent US12186319B2, “Crosslinked polymer nanoparticles for targeted cellular uptake and therapeutics, and compositions and methods thereof” (University of Massachusetts, priority 2017, dated 2025).

Experiment: Encapsulation of drug within HA-decorated nanoparticles (FIG. 1, visual)
Format: physicochemical
Details: FIG. 1B/1C, colour of solution
Protocol: The dye is however stably encapsulated in crosslinked HA-decorated nanoparticles (right).
MTX and MMTX encapsulation: A suspension of modified HA (1 mg/mL), crosslinker (2 mg/mL) and Irgacure 2959 (0.5 mg/mL) in water (1 mL) was stirred at RT for 30 mins and purged with argon for 10 mins. To this solution, MTX (100 μL, 6 mg/mL) or MMTX (100 μL, 6 mg/mL) or DMSO 100 μL (control) was added. The reaction mixture was exposed to UV irradiation for 10 min. Afterwards, the free drug was removed by dialyzing the solution against DI water for 48 h and filtered through a hydrophilic membrane (pore size: 0.45 μm). The resulting solution was used to estimate the size of the drug loaded PNPs using dynamic light scattering.

encapsulation within HA-decorated nanoparticles: no encapsulation is discernible
SMILES: CN(Cc1cnc2nc(N)nc(N)c2n1)c1ccc(C(=O)N[C@@H](CCC(=O)O)C(=O)O)cc1 [MTX, Methotrexate]
